These are literature values, as cited in patent publication US6331660A, “Maize DIMBOA biosynthesis genes” (Dekalb Genetics Corporation, priority 1998, dated 2001).

The data set deals with T1, native E. coli α2β2 complex of tryptophan synthase α (TSA) and tryptophan synthase β (TSB) (Escherichia coli, UniProt P0A877).
T1 construct: by the native E. coli α2β2 complex
Particulars: conversion of indole-3-glycerol phosphate to indole, Weischet et al., 1976.

T1 sequence (P0A879 2-397): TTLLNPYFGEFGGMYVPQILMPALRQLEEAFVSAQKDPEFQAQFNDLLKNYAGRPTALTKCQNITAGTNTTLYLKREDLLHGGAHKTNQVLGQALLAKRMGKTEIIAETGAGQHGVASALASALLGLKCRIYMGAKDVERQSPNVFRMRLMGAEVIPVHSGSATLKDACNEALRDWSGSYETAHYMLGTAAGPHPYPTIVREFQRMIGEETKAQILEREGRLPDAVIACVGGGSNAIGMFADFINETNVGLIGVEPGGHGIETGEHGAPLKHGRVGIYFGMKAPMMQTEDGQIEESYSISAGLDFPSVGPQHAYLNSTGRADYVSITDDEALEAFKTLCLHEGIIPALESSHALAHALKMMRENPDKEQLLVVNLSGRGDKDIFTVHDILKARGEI
T1 sequence (P0A877 whole entry): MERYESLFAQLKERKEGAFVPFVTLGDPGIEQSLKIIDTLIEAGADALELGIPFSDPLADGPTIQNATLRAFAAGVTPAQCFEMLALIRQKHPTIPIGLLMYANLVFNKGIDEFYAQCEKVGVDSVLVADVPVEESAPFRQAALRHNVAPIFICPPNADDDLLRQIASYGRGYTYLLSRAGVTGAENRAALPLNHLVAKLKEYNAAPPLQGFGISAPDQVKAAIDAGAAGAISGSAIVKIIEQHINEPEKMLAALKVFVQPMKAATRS

Turning to `O=P(O)(O)OCC(O)C(O)c1c[nH]c2ccccc12` (centres unmarked) [indole-3-glycerol phosphate], the kcat – broadly, the number of substrate molecules converted per active site and unit of time at saturation – was 0.2 s⁻¹. For the same compound, for the setting “read-out: Km^indole-3-glycerol phosphate”, the Km (as a rule, the concentration of substrate that gives half-maximal velocity) is 27 µM.
